This note sets out measurements from ChEMBL document CHEMBL1201862, “PubChem BioAssay data set” (2004).

One assay concerns HEK293. Description: cells. The format is functional, cell-based. Particulars: Homo sapiens.
Assay [1] concerns the target T1, Nuclear receptor subfamily 0 group B member 1 (Homo sapiens, UniProt P51843).
T1 sequence (P51843 whole entry): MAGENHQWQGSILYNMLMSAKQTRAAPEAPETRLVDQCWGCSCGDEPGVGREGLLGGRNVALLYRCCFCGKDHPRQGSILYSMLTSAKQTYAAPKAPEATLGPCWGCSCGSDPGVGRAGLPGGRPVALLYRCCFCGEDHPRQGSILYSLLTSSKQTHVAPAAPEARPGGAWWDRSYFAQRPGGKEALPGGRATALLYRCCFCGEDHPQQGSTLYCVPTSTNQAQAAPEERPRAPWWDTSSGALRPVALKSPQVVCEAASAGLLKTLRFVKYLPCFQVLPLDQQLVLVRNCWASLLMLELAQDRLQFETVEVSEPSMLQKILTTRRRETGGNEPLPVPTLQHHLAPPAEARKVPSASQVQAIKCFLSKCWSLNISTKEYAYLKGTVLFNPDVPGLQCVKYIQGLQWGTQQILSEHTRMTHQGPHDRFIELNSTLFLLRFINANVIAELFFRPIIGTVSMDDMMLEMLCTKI
Description: Luminescence-based cell-based high throughput dose response assay for inhibitors of the orphan nuclear receptor subfamily 0, group B, member 1 (DAX1; NR0B1). [Related pubchem assays (depositor defined):AID504766, AID504790]. Type of assay: functional.

The subject of assay [2] is Streptococcus sp. 'group A'. Put plainly: growth inhibition of control SK(-) GAS strain, dose response, counter-screen for streptokinase expression inhibitor project, luminescence, kanamycin, BacTiterGlo, confirmation (AID 1900). Type of assay: functional, organism-based. On the technique in general: A counterscreen serves to expose hits that act by an unwanted route or on another target.

The next assay deals with T2, Streptokinase A (Streptococcus pyogenes serotype M1, UniProt P10520).
T2 sequence (P10520 whole entry): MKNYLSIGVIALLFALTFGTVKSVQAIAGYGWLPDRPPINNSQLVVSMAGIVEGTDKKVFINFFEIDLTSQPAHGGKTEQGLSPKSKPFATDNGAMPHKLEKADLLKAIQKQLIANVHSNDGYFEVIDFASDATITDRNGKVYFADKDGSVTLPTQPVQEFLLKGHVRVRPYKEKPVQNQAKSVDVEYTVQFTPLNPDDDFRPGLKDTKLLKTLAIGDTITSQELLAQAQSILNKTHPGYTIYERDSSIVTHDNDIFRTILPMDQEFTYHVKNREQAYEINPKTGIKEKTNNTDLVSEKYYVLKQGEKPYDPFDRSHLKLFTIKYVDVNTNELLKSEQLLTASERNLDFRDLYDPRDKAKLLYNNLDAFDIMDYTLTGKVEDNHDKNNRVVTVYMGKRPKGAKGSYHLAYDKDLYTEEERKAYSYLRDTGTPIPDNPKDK
Put plainly: S. pyogenes streptokinase expression inhibitors, potency, dose response, plasminogen activation absorbance, OD405 (AID 1914).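 Also: secreted streptokinase activity via plasminogen activation per viability signal from cell pellet.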 Type of assay: functional, Streptococcus pyogenes M1 GAS.

In the next assay the test system is Streptococcus. Put plainly: Group A Streptococcus viability loss, dose response, counter-screen for streptokinase expression inhibitor project, luminescence, BacTiterGlo (AID 1915).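 Also: potency for reduction of bacterial viability or growth.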 The format is functional, organism-based.
Assay [3] has as its target T3, Replicative DNA helicase DnaB (Mycobacterium tuberculosis, UniProt P9WMR3).
T3 sequence (P9WMR3 whole entry): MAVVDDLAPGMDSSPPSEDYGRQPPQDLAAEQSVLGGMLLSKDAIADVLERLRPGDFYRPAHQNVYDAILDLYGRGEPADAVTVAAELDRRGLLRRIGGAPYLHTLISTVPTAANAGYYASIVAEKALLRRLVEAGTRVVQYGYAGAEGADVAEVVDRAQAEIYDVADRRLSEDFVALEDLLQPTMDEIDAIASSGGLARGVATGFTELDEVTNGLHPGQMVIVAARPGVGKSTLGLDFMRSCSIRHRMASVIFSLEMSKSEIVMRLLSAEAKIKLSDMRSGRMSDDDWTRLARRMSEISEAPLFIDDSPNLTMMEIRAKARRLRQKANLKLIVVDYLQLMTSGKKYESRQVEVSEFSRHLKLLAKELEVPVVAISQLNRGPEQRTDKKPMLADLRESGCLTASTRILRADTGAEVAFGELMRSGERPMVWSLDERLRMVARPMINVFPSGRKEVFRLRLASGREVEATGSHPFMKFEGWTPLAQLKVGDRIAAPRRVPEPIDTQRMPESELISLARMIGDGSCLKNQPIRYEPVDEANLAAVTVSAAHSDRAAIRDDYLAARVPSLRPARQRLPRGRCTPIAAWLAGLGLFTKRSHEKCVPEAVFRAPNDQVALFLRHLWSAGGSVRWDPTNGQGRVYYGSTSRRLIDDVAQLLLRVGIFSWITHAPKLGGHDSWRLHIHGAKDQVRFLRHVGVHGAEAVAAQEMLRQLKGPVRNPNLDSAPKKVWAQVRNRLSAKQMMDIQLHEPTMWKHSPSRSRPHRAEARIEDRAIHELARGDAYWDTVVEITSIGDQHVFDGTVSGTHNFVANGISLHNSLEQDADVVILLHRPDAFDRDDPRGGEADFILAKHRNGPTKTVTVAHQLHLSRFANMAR
Put plainly: DnaB intein splicing inhibitors, dose response, biochemical, cell-free fluorescence (AID 449749). Type of assay: functional.

Another assay concerns Vero. Put plainly: Vero cell cytotoxicity, cytotoxicity control for flavivirus capping enzyme inhibitors (AID 588742). Type of assay: functional. Particulars: Chlorocebus sabaeus.
The target of assay [4] is Apoptotic protease-activating factor 1 (Homo sapiens, UniProt O14727). Type of assay: functional.
The next assay addresses T4, Protein RecA (Mycobacterium tuberculosis, UniProt P9WHJ3).
T4 sequence (P9WHJ3 whole entry): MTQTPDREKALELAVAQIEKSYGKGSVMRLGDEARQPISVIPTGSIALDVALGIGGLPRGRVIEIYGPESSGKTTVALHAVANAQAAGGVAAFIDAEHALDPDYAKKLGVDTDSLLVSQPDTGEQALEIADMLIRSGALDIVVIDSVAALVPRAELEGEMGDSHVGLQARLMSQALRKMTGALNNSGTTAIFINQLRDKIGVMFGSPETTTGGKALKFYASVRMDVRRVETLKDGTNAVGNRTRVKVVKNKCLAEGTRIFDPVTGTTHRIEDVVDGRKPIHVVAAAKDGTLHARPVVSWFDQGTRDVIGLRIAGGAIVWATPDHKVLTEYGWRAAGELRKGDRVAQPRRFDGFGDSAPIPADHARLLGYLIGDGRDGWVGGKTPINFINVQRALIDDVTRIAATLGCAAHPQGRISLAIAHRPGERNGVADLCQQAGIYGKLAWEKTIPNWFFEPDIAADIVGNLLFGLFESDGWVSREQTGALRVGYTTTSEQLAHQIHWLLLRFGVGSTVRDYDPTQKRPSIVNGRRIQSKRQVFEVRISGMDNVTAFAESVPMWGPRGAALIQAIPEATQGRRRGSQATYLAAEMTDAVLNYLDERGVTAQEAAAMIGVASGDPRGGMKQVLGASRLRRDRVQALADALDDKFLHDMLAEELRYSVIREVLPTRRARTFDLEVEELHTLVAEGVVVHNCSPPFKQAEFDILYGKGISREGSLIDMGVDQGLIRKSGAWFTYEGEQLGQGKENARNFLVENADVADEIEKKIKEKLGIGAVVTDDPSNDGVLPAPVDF
Put plainly: Fluorescence Cell-Free Homogeneous Dose Retest to Identify Inhibitors of RecA-Intein Splicing Activity. [Related pubchem assays (depositor defined):AID2097, AID2223, AID489010, AID492950]. Type of assay: functional.

Assay [5] deals with T5, Mitochondrial peptide methionine sulfoxide reductase (Bos taurus, UniProt P54149).
T5 sequence (P54149 whole entry): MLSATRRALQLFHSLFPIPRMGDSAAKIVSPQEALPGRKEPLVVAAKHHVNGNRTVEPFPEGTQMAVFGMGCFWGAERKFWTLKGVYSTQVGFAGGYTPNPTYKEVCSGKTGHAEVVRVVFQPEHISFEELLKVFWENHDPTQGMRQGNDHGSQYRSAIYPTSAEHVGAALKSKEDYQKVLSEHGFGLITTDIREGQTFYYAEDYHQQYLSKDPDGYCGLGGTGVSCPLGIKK
Type of assay: functional.

Assay [6] has as its target Beta-2 adrenergic receptor (Homo sapiens, UniProt P07550). Put plainly: beta2AR agonists driving receptor internalization, dose response, cell-based, FAP fluorogen, flow cytometry, cherry pick 1 (AID 588763). Type of assay: functional. Background: Flow cytometry measures light scatter and fluorescence of single cells or particles in a stream.

The source made the active and inactive calls.

The IC50 is the concentration needed to halve the response being measured. What is called EC50 is the concentration at which the effect is half-maximal. The AC50 is the concentration at which the activity in the assay is half-maximal. The term CC50 denotes the concentration giving 50% cytotoxicity.

Chain of Apoptotic protease-activating factor 1 (O14727 whole entry): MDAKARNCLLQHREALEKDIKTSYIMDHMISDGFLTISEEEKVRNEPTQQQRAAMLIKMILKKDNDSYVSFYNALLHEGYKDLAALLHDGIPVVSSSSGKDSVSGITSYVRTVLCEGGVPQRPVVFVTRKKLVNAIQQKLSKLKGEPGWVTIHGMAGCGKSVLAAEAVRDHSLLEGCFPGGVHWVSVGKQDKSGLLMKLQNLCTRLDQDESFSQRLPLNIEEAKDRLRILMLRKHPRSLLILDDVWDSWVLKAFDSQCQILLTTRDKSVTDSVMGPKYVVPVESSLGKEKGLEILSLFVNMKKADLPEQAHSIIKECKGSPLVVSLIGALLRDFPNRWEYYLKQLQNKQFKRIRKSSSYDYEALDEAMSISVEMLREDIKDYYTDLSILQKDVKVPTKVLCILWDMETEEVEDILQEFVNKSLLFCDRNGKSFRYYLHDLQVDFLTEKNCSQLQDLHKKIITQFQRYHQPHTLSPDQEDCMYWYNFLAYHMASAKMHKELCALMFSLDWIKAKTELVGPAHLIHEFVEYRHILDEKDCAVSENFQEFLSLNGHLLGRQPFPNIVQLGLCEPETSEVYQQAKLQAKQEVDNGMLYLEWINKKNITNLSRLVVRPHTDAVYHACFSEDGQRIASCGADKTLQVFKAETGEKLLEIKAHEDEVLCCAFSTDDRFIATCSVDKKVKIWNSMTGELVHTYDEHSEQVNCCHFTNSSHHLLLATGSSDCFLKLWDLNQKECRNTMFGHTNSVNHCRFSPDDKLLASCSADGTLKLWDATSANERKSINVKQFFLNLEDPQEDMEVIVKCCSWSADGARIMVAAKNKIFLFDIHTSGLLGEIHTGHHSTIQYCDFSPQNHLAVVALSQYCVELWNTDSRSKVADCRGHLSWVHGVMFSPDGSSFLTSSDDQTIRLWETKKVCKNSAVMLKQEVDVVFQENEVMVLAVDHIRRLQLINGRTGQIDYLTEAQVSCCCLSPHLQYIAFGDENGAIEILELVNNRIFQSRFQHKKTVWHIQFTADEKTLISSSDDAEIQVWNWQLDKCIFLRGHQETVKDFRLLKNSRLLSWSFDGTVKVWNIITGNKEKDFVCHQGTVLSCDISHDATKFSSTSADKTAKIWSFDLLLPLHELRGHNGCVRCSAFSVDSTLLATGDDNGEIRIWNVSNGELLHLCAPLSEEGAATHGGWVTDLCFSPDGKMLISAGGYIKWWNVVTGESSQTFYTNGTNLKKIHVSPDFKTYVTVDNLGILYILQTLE
Chain of Beta-2 adrenergic receptor (P07550 whole entry): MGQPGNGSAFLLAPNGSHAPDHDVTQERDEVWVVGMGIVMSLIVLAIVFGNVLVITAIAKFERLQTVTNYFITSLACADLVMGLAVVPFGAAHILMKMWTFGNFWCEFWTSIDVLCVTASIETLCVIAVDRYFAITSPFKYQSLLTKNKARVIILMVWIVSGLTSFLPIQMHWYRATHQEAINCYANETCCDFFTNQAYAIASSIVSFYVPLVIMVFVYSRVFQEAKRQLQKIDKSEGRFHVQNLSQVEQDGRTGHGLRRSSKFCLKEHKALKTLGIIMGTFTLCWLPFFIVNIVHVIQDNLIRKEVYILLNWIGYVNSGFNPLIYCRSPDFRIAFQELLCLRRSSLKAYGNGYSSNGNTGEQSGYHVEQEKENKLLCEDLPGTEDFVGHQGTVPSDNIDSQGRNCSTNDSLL

Turning to `C(=N\Nc1nc2ccccc2[nH]1)/c1ccc2c(c1)OCO2`, the IC50 (with HEK293; in assay [1]) was > 67.5 µM (inactive) in each case.

As to `Cc1[nH]c2ccccc2c1C(C#N)(C#N)C1C(=O)c2ccccc2C1=O`, the 50% effective concentration (EC50) in assay [2] was 8.49 µM (active); on Streptokinase A, > 150 µM (not active); in the assay with Streptococcus, > 150 µM (not active); on Protein RecA, 0.297 µM (active). Moreover, in assay [3], the AC50 was > 120 µM (inactive). For the same compound, in the assay on Vero, the CC50 was > 40 µM (active). Also, the IC50 in assay [4] is > 100 µM (inactive); in [5] it was 12.1 µM (inactive).

Take `Cn1c(CNc2nc(-c3ccccc3)cs2)nnc1SCC(=O)N1CCc2ccccc21`: the concentration giving a half-maximal response (EC50) in assay [6] is 0.666 µM (active).
